From patent publication US9849116B2 (KNOPP BIOSCIENCES LLC, priority 2008, dated 2017)
pIC50: −log10 of the molar value. Read-outs that look alike come from different tables or passages of the source.

Assays:
D1 dopamine receptor = D1 dopamine receptor (Homo sapiens, UniProt P21728)
Protocol: (§1) These concentrations were tested in cell lines expressing select human cloned dopamine receptors (D2S, D3).

D5 dopamine receptor = D5 dopamine receptor (Homo sapiens, UniProt P21918)
Protocol: as §1

male beagle dogs = conditions: based on dog data
rodents [1] = conditions: in vivo
[2] = test system: monkeys treated with MPTP; conditions: monkey, in vivo
rodents [3] = conditions: single oral dose; cited from earlier work
dogs = conditions: single oral dose; cited from earlier work
monkeys = conditions: single oral dose; cited from earlier work
human subjects = conditions: cited from earlier work
[4] = test system: monkeys treated with MPTP; conditions: cited from earlier work
[5] = test system: Parkinson's disease patients; conditions: treatment of Parkinson's disease; cited from earlier work
[6] = test system: restless legs syndrome patients; conditions: treatment of restless legs syndrome; cited from earlier work
[7] = cited from earlier work
D2 dopamine receptor = conditions: read-out: D2 binding, IC50, cited from earlier work
[8] = Lit.* Schneider & Mierau 1987 J. Med. Chem. 30: 494-498
[9] = Lit.** Wong & Shrikhande 2003 Society for Neuroscience Abstracts

Chain of D1 dopamine receptor (P21728 whole entry): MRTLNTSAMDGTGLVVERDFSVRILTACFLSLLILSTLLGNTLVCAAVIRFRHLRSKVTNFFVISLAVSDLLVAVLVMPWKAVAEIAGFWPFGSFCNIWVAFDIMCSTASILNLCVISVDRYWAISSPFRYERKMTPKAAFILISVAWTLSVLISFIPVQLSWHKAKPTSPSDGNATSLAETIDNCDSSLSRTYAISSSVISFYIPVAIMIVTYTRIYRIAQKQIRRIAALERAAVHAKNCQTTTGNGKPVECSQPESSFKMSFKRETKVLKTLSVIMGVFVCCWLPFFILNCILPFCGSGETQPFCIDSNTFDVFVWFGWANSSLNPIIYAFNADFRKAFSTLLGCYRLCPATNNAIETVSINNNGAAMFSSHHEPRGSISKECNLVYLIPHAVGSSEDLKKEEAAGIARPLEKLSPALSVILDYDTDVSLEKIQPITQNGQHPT
Chain of D5 dopamine receptor (P21918 whole entry): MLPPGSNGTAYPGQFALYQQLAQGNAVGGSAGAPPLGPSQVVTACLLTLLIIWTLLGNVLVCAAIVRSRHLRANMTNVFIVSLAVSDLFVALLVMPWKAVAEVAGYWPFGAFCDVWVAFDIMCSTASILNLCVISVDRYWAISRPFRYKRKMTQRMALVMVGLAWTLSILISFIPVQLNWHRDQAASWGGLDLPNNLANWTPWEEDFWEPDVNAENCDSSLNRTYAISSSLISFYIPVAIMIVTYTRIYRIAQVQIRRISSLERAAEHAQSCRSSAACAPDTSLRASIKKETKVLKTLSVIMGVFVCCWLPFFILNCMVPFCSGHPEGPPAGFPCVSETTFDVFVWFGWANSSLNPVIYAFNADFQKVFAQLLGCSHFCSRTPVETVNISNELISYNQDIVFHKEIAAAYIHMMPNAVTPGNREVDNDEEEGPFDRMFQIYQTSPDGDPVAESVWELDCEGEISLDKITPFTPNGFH

Structure (SMILES) | interaction with D1 dopamine receptor (D1 dopamine receptor) | interaction with D5 dopamine receptor (D5 dopamine receptor) | human equivalent dose of the NOAEL for a 70 kg individual (male beagle dogs) | human equivalence dose of the MTD (male beagle dogs; 70 kg human subject) | human dose equivalent to the lethal dose in rodents (rodents [1]) | human dose equivalent to the lethal dose in rodents, 70 kg individual (rodents [1]) | human dose equivalent to the lowest effective oral dose in monkeys [2] | human dose equivalent to the lowest effective oral dose in monkeys, 70 kg individual [2] | doses at which deaths occurred (and above) (rodents [3]) | dose at which vomiting occurred (and above) (dogs) | dose at which major excitation was displayed (monkeys) | dose shown to cause somnolence (human subjects; human subjects) | starting daily dose not tolerated (human subjects; naïve patient) | lowest effective oral dose [4] | lowest effective oral dose with a significant effect versus placebo [5] | lowest effective dose with a significant effect versus placebo [6] | MRTD ([7]; FDA MRTD database) | MRTD ([7]; for a 70 lb. person) | pIC50 (D2 dopamine receptor; [8]) | pIC50 (D2 dopamine receptor; [9])
CCCN[C@H]1CCc2nc(N)sc2C1 [(S)-pramipexole, (6S)-4,5,6,7-tetrahydro-N6-propyl-2,6-benzothiazole-diamine] | no significant interaction | no significant interaction | 0.05 mg | 0.30 mg | 7 to 12 mg/kg | 500 to 850 mg | 0.017 mg/kg | 1.2 mg | 70 to 105 mg/kg | ≥ 0.0007 mg/kg | 3.5 mg/kg | 1.5 mg | greater than 0.20 mg | […] | 1.1 mg/day | 0.25 mg/day | 0.1 mg/kg/day | 7.0 mg/day |  | 
